Laboratory results from patent US9763957B2, “Autotaxin inhibitors” (Novartis AG, priority 2013, dated 2017).

Each compound was assayed against Recombinant human ATX (Homo sapiens (Human), UniProt Q13822) (assay: ATX inhibition assay (choline release, Amplex Red fluorescence)). Conditions: ATX 10 nM, LPC 18:1 10 μM, 37° C., 20 min pre-incubation; mean of n≧2.
Assay type: biochemical
Outline: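 Activity was taken from the slope of resorufin fluorescence (530/590 nm, read every 2 min for 40 min at 37 °C) produced by choline liberated from 10 μM oleoyl LPC.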

Structure (SMILES)	IC50
Cc1cn(C2CCN(C(=O)/C=C/c3ccc(Cl)cc3Cn3nnc(C)n3)CC2)nn1 [Example 9, (E)-3-(4-Chloro-2-((5-methyl-2H-tetrazol-2-yl)methyl)phenyl)-1-(4-(4-methyl-1H-1,2,3-triazol-1-yl)piperidin-1-yl)prop-2-en-1-one]	100 nM
Cc1nnn(Cc2cc(Cl)ccc2/C=C/C(=O)N2CC[C@H](NC(=O)C(F)(F)F)C2)n1 [Example 49.18, (S,E)-N-(1-(3-(4-Chloro-2-((5-methyl-2H-tetrazol-2-yl)methyl)phenyl)acryloyl)pyrrolidin-3-yl)-2,2,2-trifluoroacetamide]	130 nM
Cc1nnn(Cc2cc(OC(F)(F)F)ccc2/C=C/C(=O)N2CCC(c3noc(C)n3)CC2)n1 [Example 3, (E)-1-(4-(5-Methyl-1,2,4-oxadiazol-3-yl)piperidin-1-yl)-3-(2-((5-methyl-2H-tetrazol-2-yl)methyl)-4-(trifluoromethoxy)phenyl)prop-2-en-1-one]	12 nM
Cc1nnn(Cc2cc(Cl)ccc2/C=C/C(=O)N2CC[C@@H](c3nnc(C)o3)C[C@H]2C)n1 [Example 98, (E)-3-(4-Chloro-2-((5-methyl-2H-tetrazol-2-yl)methyl)phenyl)-1-((2R,4R)-2-methyl-4-(5-methyl-1,3,4-oxadiazol-2-yl)piperidin-1-yl)prop-2-en-1-one]	66 nM
CNC(=O)COC1CCN(C(=O)/C=C/c2ccc(Cl)cc2Cn2nnc(C)n2)CC1 [Example 49.19, (E)-2-((1-(3-(4-Chloro-2-((5-methyl-2H-tetrazol-2-yl)methyl)phenyl)acryloyl)piperidin-4-yl)oxy)-N-methylacetamide]	176 nM
Cc1nnn(Cc2cc(Cl)ccc2/C=C/C(=O)N2CCC(n3ncnc3C)CC2)n1 [Example 11, (E)-3-(4-Chloro-2-((5-methyl-2H-tetrazol-2-yl)methyl)phenyl)-1-(4-(5-methyl-1H-1,2,4-triazol-1-yl)piperidin-1-yl)prop-2-en-1-one]	73 nM
Cc1nnn(Cc2cc(Cl)ccc2/C=C/C(=O)N2CCC(c3nnc(CC(F)(F)F)o3)CC2)n1 [Example 141, (E)-3-(4-Chloro-2-((5-methyl-2H-tetrazol-2-yl)methyl)phenyl)-1-(4-(5-(2,2,2-trifluoroethyl)-1,3,4-oxadiazol-2-yl)piperidin-1-yl)prop-2-en-1-one]	11 nM
Cc1nnn(Cc2cc(Cl)ccc2/C=C/C(=O)N2CCC(CCNC(=O)c3c[nH]nc3C(F)(F)F)CC2)n1 [Example 146, (E)-N-(2-(1-(3-(4-Chloro-2-((5-methyl-2H-tetrazol-2-yl)methyl)phenyl)acryloyl)piperidin-4-yl)ethyl)-3-(trifluoromethyl)-1H-pyrazole-4-carboxamide]	17 nM
Cc1nnn(Cc2cccc(Cl)c2/C=C/C(=O)N2CCC(Cc3nnc(C)o3)CC2)n1 [Example 46, (E)-3-(2-Chloro-6-((5-methyl-2H-tetrazol-2-yl)methyl)phenyl)-1-(4-((5-methyl-1,3,4-oxadiazol-2-yl)methyl)piperidin-1-yl)prop-2-en-1-one]	204 nM
Cc1cc(CN2CCN(C(=O)/C=C/c3ccc(Cl)cc3Cn3nnc(C)n3)CC2)on1 [Example 140.2, (E)-3-(4-Chloro-2-((5-methyl-2H-tetrazol-2-yl)methyl)phenyl)-1-(4-((3-methylisoxazol-5-yl)methyl)piperazin-1-yl)prop-2-en-1-one]	64 nM
COC(=O)C1SCCN1C(=O)/C=C/c1ccc(Cl)cc1Cn1nnc(C)n1 (stereo not drawn) [Example 49.27, (E)-Methyl 3-(3-(4-chloro-2-((5-methyl-2H-tetrazol-2-yl)methyl)phenyl)acryloyl)thiazolidine-2-carboxylate]	110 nM
Cc1nnn(Cc2cc(Cl)ccc2/C=C/C(=O)N2CCN(c3ncccc3C#N)CC2)n1 [Example 49.28, (E)-2-(4-(3-(4-Chloro-2-((5-methyl-2H-tetrazol-2-yl)methyl)phenyl)acryloyl)piperazin-1-yl)nicotinonitrile]	10 nM
Cc1nnn(Cc2cc(Cl)ccc2/C=C/C(=O)N2CCC(C(F)(F)F)CC2)n1 [Example 49.12, (E)-3-(4-Chloro-2-((5-methyl-2H-tetrazol-2-yl)methyl)phenyl)-1-(4-(trifluoromethyl)piperidin-1-yl)prop-2-en-1-one]	49 nM
Cc1nnn(Cc2cc(C(F)(F)F)ccc2/C=C/C(=O)N2CCOCC2C(F)(F)F)n1 (stereo not drawn) [Example 142, (E)-3-(2-((5-Methyl-2H-tetrazol-2-yl)methyl)-4-(trifluoromethyl)phenyl)-1-(3-(trifluoromethyl)morpholino)prop-2-en-1-one]	12 nM
Cc1nnn(Cc2cc(Cl)ccc2/C=C/C(=O)N2CCC(O)C[C@@H]2C)n1 (single isomer, unassigned) [Example 50a, (E)-3-(4-chloro-2-((5-methyl-2H-tetrazol-2-yl)methyl)phenyl)-1-((2S, 4R or 4S)-4-hydroxy-2-methylpiperidin-1-yl)prop-2-en-1-one]	70 nM
Cc1nnn(Cc2c(F)cccc2/C=C/C(=O)N2CCC(Cc3nnc(C)o3)CC2)n1 [Example 78, (E)-3-(3-Fluoro-2-((5-methyl-2H-tetrazol-2-yl)methyl)phenyl)-1-(4-((5-methyl-1,3,4-oxadiazol-2-yl)methyl)piperidin-1-yl)prop-2-en-1-one]	1460 nM
Cc1nnn(Cc2cc(C(F)(F)F)ccc2/C=C/C(=O)N2CCN(Cc3coc(C)n3)C[C@H]2CO)n1 [Example 132, (S,E)-1-(2-(Hydroxymethyl)-4-((2-methyloxazol-4-yl)methyl)piperazin-1-yl)-3-(2-((5-methyl-2H-tetrazol-2-yl)methyl)-4-(trifluoromethyl)phenyl)prop-2-en-1-one]	14 nM
Cc1nnn(Cc2cc(Cl)ccc2/C=C/C(=O)N2CCC(c3nnc(C4CC4)o3)CC2)n1 [Example 96, (E)-3-(4-Chloro-2-((5-methyl-2H-tetrazol-2-yl)methyl)phenyl)-1-(4-(5-cyclopropyl-1,3,4-oxadiazol-2-yl)piperidin-1-yl)prop-2-en-1-one]	8.3 nM
Cc1cnn(CCC2CCN(C(=O)/C=C/c3ccc(Cl)cc3Cn3nnc(C)n3)CC2)c1 [Example 33, (E)-3-(4-Chloro-2-((5-methyl-2H-tetrazol-2-yl)methyl)phenyl)-1-(4-(2-(4-methyl-1H-pyrazol-1-yl)ethyl)piperidin-1-yl)prop-2-en-1-one]	53 nM
Cc1nnn(Cc2ccc(F)cc2/C=C/C(=O)N2CCC(Cc3nnc(C)o3)CC2)n1 [Example 79, (E)-3-(5-Fluoro-2-((5-methyl-2H-tetrazol-2-yl)methyl)phenyl)-1-(4-((5-methyl-1,3,4-oxadiazol-2-yl)methyl)piperidin-1-yl)prop-2-en-1-one]	3140 nM
Cc1nnn(Cc2cc(Cl)ccc2/C=C/C(=O)N2CCC(CCN(C)C(=O)c3c[nH]c(=O)o3)CC2)n1 [Example 148, (E)-N-(2-(1-(3-(4-Chloro-2-((5-methyl-2H-tetrazol-2-yl)methyl)phenyl)acryloyl)piperidin-4-yl)ethyl)-N-methyl-2-oxo-2,3-dihydrooxazole-5-carboxamide]	8.9 nM

Stronger by IC50, values ahead:

IC50	Structure (SMILES)
6.9 nM	Cc1nnn(Cc2cc(C(F)(F)F)ccc2/C=C/C(=O)N2CCCC[C@H]2C(F)(F)F)n1 [Example 121, (S,E)-3-(2-((5-Methyl-2H-tetrazol-2-yl)methyl)-4-(trifluoromethyl)phenyl)-1-(2-(trifluoromethyl)piperidin-1-yl)prop-2-en-1-one]
6 nM	Cc1nnn(Cc2cc(C(F)(F)F)ccc2/C=C/C(=O)N2CCC(Cc3noc(C)n3)CC2)n1 [Example 71, (E)-1-(4-((5-Methyl-1,2,4-oxadiazol-3-yl)methyl)piperidin-1-yl)-3-(2-((5-methyl-2H-tetrazol-2-yl)methyl)-4-(trifluoromethyl)phenyl)prop-2-en-1-one]
5.9 nM	CCOC(=O)C1CCN(C(=O)/C=C/c2ccc(Cl)cc2Cn2nnc(C)n2)CC1 [Example 49.9, (E)-ethyl 1-(3-(4-Chloro-2-((5-methyl-2H-tetrazol-2-yl)methyl)phenyl)acryloyl)piperidine-4-carboxylate]
5.5 nM	Cc1csc(C(O)C2CCN(C(=O)/C=C/c3ccc(Cl)cc3Cn3nnc(C)n3)CC2)n1 (stereo not drawn) [Example 63, (E)-3-(4-Chloro-2-((5-methyl-2H-tetrazol-2-yl)methyl)phenyl)-1-(4-(hydroxy(4-methylthiazol-2-yl)methyl)piperidin-1-yl)prop-2-en-1-one]
4.2 nM	Cc1nnn(Cc2cc(Cl)ccc2/C=C/C(=O)N2CCN(Cc3cnn(C)c3)C[C@H]2C)n1 [Example 73, (R,E)-3-(4-Chloro-2-((5-methyl-2H-tetrazol-2-yl)methyl)phenyl)-1-(2-methyl-4-((1-methyl-1 H-pyrazol-4-yl)methyl)piperazin-1-yl)prop-2-en-1-one]
4.2 nM	Cc1nnn(Cc2cc(Cl)ccc2/C=C/C(=O)N2CCN(Cc3coc(C)n3)C[C@H]2C)n1 [Example 62, (R,E)-3-(4-Chloro-2-((5-methyl-2H-tetrazol-2-yl)methyl)phenyl)-1-(2-methyl-4-((2-methyloxazol-4-yl)methyl)piperazin-1-yl)prop-2-en-1-one]
3.9 nM	Cc1noc(CN2CCN(C(=O)/C=C/c3ccc(Cl)cc3Cn3nnc(C)n3)[C@H](C)C2)n1 [Example 114, (R,E)-3-(4-Chloro-2-((5-methyl-2H-tetrazol-2-yl)methyl)phenyl)-1-(2-methyl-4-((3-methyl-1,2,4-oxadiazol-5-yl)methyl)piperazin-1-yl)prop-2-en-1-one]
3.5 nM	Cc1nnn(Cc2cc(C(F)(F)F)ccc2/C=C/C(=O)N2CCN(Cc3ccn(C)n3)CC2)n1 [Example 89, (E)-1-(4-((1-Methyl-1H-pyrazol-3-yl)methyl)piperazin-1-yl)-3-(2-((5-methyl-2H-tetrazol-2-yl)methyl)-4-(trifluoromethyl)phenyl)prop-2-en-1-one]
2 nM	Cc1nnn(Cc2cc(C(F)(F)F)ccc2/C=C/C(=O)N2CCN(Cc3coc(C)n3)C[C@H]2C)n1 [Example 69, (R,E)-3-(2-((5-Methyl-2H-tetrazol-2-yl)methyl)-4-(trifluoromethyl)phenyl)-1-(2-methyl-4-((2-methyloxazol-4-yl)methyl)piperazin-1-yl)prop-2-en-1-one]
